Test results: PubChem BioAssay (NCI)
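Cultured in 96-well plates, cells were exposed to test compound for 48 hours across five concentrations. GI50 marks 50% less growth. At the TGI there is no net growth.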

Assays:
Test in all cases: NCI anticancer screen, dose series, 48 h
OVCAR-4 ovarian = system: OVCAR-4 ovarian
RXF 393 renal = system: RXF 393 renal
SNB-19 CNS = system: SNB-19 CNS
LOX IMVI melanoma = system: LOX IMVI melanoma
786-0 renal = system: 786-0 renal
SF-268 CNS = system: SF-268 CNS
HCT-116 colon = system: HCT-116 colon
NCI-H522 lung = system: NCI-H522 lung
A549 NSCLC = system: A549 NSCLC
MOLT-4 leukemia = system: MOLT-4 leukemia
SR leukemia = system: SR leukemia

| SMILES | TGI (OVCAR-4 ovarian) [µM] | TGI (RXF 393 renal) [µM] | TGI (SNB-19 CNS) [µM] | TGI (LOX IMVI melanoma) [µM] | TGI (786-0 renal) [µM] | TGI (SF-268 CNS) [µM] | TGI (HCT-116 colon) [µM] | TGI (NCI-H522 lung) [µM] | TGI (A549 NSCLC) [µM] | TGI (MOLT-4 leukemia) [µM] | TGI (SR leukemia) [µM] | GI50 (LOX IMVI melanoma) [µM] |
| --- | --- | --- | --- | --- | --- | --- | --- | --- | --- | --- | --- | --- |
| CC(=O)c1ccc2c(c1)N(CCCN1CCN(CCO)CC1)c1ccccc1C2 | 30.2 | 32.6 | 33.8 | 29.6 | 31.5 | 33.2 | 30.5 | 31.2 | 33.3 | 35.2 |  |  |
| O=C(O)C(O)C(O)C(O)C(=O)CO (stereo not given) | > 100 | > 100 | > 100 | > 100 | > 100 | > 100 | > 100 | > 100 | > 100 | > 100 | > 100 |  |
| CCOC(=O)C(=O)NCCCN1CCOCC1 | > 100 | > 100 | > 100 | > 100 |  | > 100 | > 100 | > 100 | > 100 | > 100 |  |  |
| C1=CC(=[N+]2N=C(c3ccccc3)CC2c2ccccc2)C=CC1=C1SC(c2ccccc2)(c2ccccc2)c2ccccc21 (stereo not given) |  | > 100 | > 100 |  | > 100 | > 100 | > 100 |  | > 100 | > 100 | > 100 |  |
| CCCCCOC(=O)c1cc2cc(CCl)ccc2oc1=O | 18.6 | 14.6 | > 76.8 | 34.5 | 18.2 | 41.9 | 27.4 | 1.3 | 41 | > 81.7 | 67.5 |  |
| Nc1cc(-c2ccc(Cl)cc2)nn1-c1nc2ccccc2nc1-c1ccccc1 | > 100 | > 100 | > 100 | > 100 | > 100 | > 100 | > 100 | > 100 | > 100 | > 100 | > 100 |  |
| CCCSc1ccc2[nH]c(N3C(=O)/C(=C/c4cc(OC)c(OC)c(OC)c4)N=C3c3ccccc3)cc2c1 | > 37.5 | 19.9 | > 37.5 | > 37.5 | > 25 | > 37.5 | > 37.5 | 26.8 | > 25.3 | > 37.5 | > 34.9 |  |
| COC(CN(C=O)[C@@H](c1ccc(Cl)cc1)c1cc2ccccc2o1)OC | 40 | 28.4 | 41.2 | 34.5 | 51.1 | 30.9 | 32.9 | 29.2 | 45.4 | 40 |  |  |
| O=C1/C(=C\c2ccc(F)cc2)CCOc2c1ccc1ccccc21 | > 100 | 49.7 | > 100 | 38.4 | 62.5 | 74.9 | 10.7 | > 100 | > 70.3 | > 47.8 |  | 13 |
| O=c1c2ccccc2[nH]c(=S)n1-c1ccc(N=Nc2cccc3cc(O)ccc23)cc1 | > 100 | > 100 | > 100 | > 100 | > 100 | > 100 | > 100 | > 100 | > 100 | > 100 | > 100 |  |
| COC(=O)C[C@H](COCc1ccccc1)NC(=O)C[C@H](COCc1ccccc1)NC(=O)OC(C)(C)C | 36.7 | 63.3 | 44.2 | > 100 | 40.8 | 40.5 | 81.2 | 54 | 62.4 | > 100 | > 100 |  |
| O=C1c2ccccc2C(C2c3ccccc3C(=O)c3cc(Br)ccc32)c2ccc(Br)cc21 (stereo not given) | > 100 | > 100 | > 100 | > 100 | > 100 | > 100 | > 100 | > 100 | > 100 | > 100 |  |  |
| Nc1ccc(Oc2ccc(C34CC5CC(C3)CC(c3ccc(Oc6ccc(N)cc6)cc3)(C5)C4)cc2)cc1 | 51.2 | > 51.9 | 38.7 | 20.1 | > 52.1 | > 51.7 | > 44.8 | 38.7 | > 60.7 | > 100 | > 100 |  |
| O=C1CC2(CCC(O)(c3cccs3)C(C(=O)c3cccs3)C2)C(=O)c2ccccc2N1 (stereo not given) |  | > 100 |  | > 100 |  | > 100 | > 100 |  | > 100 | > 100 | > 100 |  |
| CC(C)(C)[Si](C)(C)OCC1OC(n2cnc3c(N)ncnc32)CC1OS(C)(=O)=O (stereo not given) | > 100 | > 100 | > 100 | > 100 |  |  | > 100 |  |  | > 100 | > 100 |  |
| C/C(N=Nc1nc2ccccc2[nH]1)=C1/C=CC=CN1O | > 100 | > 100 | > 100 | > 100 | > 100 | > 100 | > 100 | > 100 | > 100 | > 100 | > 100 |  |
